In one series the test system is C57BL/6 mice. Kind of series: In vivo delivery of luciferase mRNA lipid nanoparticles in mice (bioluminescence imaging). As to conditions: intravenous, single dose 0.5 mg/kg luciferase mRNA. Summed up:
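Female C57BL/6 mice, 6-8 weeks old, received luciferase mRNA lipid nanoparticles as a single intravenous dose of 0.5 mg/kg mRNA. At 6 h, D-luciferin given intraperitoneally; 10 min later, mice were imaged under isoflurane anaesthesia. Values are group mean fluorescence intensity and total photon count.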

Series [1] can be described thus: Particle size and PDI of lipid nanoparticles by dynamic light scattering. It counts as physicochemical. As to conditions: lipid nanoparticles with luciferase mRNA; ionizable lipid/cholesterol/DSPC/DMG-PEG2000 50/38.5/10/1.5 mol%. Summed up:
(§1)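 LNPs of ionizable lipid/cholesterol/phospholipid/PEG-lipid (50/38.5/10/1.5 mol%, N/P 6) were formed by microfluidic mixing with mRNA in pH 4.5 acetate, then buffer-exchanged by ultrafiltration. Size and PDI were measured by DLS. Encapsulation came from RiboGreen fluorescence (485/528 nm) in TE pH 7.5, with and without 0.5% Triton at 37 °C for 30 min.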

Series [2] is described as follows: Encapsulation efficiency of lipid nanoparticles (Quant-it RiboGreen RNA Assay). As to conditions: lipid nanoparticles with luciferase mRNA. In kind it is physicochemical. Summed up: as §1

With `CCCCCCCCCC(=O)OCCCC(C)(C)CCCN(CCCCO)CCCCCCC(=O)OCCCC(CCCCCC)CCCCCC` [94b], in the series on C57BL/6 mice, the “Total photon count in vivo at 6 hours after administration (Total Flux)” value (from here on “Total photon count in vivo at 6 hours”) is reported as 2.23E+10. In series [1], the “Particle size (nm)” value was 125.60 nm and the “Particle-size distribution (PDI)” value came out at 0.11. Further, the “Encapsulation efficiency (%)” value in series [2] amounted to 93.55%.
`CCCCCCCCCCC(=O)OCCCC(C)(C)CCCN(CCO)CCCCCCC(=O)OCC(CCCCCCCCC)CCCCCCCCC` [95b]: the “Total photon count in vivo at 6 hours” value with C57BL/6 mice worked out at 2.44E+10. In addition, in series [1], the “Particle size (nm)” value came out at 84.62 nm and the “Particle-size distribution (PDI)” value is 0.15. The “Encapsulation efficiency (%)” value in series [2] was 95.41%.
The like results for `CCCCCCCCCCC(=O)OCCCC(C)(C)CCCN(CCO)CCCCCCCCC(=O)OCC(CCCCCCC)CCCCCCC` [96b] were, in that order, 3.77E+10, 97.75 nm, 0.15 and 92.10%.
Turning to `CCCCCCCCCCCC(=O)OCC(C)(C)CCCCCN(CCO)CCCCCCC(=O)OCC(CCCCCCCCCC)CCCCCCCCCC` [97b], in the series on C57BL/6 mice, the “Total photon count in vivo at 6 hours” value worked out at 9.01E+10. Moreover, in series [1], the “Particle size (nm)” value is given as 85.56 nm and the “Particle-size distribution (PDI)” value is on record as 0.14. The “Encapsulation efficiency (%)” value in series [2] is 93.79%.
Consider `CCCCCCCCCCCC(=O)OCC(C)(C)CCCCCN(CCO)CCCCCCCCC(=O)OCC(CCCCCCCC)CCCCCCCC` [98b], for which the “Total photon count in vivo at 6 hours” value in the series with C57BL/6 mice is listed as 1.07E+11. Besides, in series [1], the “Particle size (nm)” value is reported as 87.99 nm and the “Particle-size distribution (PDI)” value was 0.18. Besides, in series [2], the “Encapsulation efficiency (%)” value was 93.04%.
On to `CCCCCCCCCCC(=O)OCCC(C)(C)CCCCN(CCO)CCCCCCCC(=O)OCC(CCCCCCCC)CCCCCCCC` [99b], for which, in the series with C57BL/6 mice, the “Total photon count in vivo at 6 hours” value is 4.78E+10. In addition, in series [1], the “Particle size (nm)” value turned out to be 85.13 nm and the “Particle-size distribution (PDI)” value is reported as 0.15. Besides, the “Encapsulation efficiency (%)” value in series [2] was determined as 92.70%.
Regarding `CCCCCCCCCCC(=O)OCCC(C)(C)CCCCN(CCCO)CCCCCCCC(=O)OCC(CCCCCCCC)CCCCCCCC` [100b], the “Total photon count in vivo at 6 hours” value with C57BL/6 mice is 8.51E+10. For the same molecule, in series [1], the “Particle size (nm)” value is given as 101.50 nm and the “Particle-size distribution (PDI)” value amounted to 0.12. Besides, the “Encapsulation efficiency (%)” value in series [2] was 91.14%.
As to `CCCCCCCCCCC(=O)OCCC(C)(C)CCCCN(CCCCO)CCCCCCCC(=O)OCC(CCCCCCCC)CCCCCCCC` [101b], the “Total photon count in vivo at 6 hours” value in the series on C57BL/6 mice is listed as 5.39E+10. In series [1], the “Particle size (nm)” value amounted to 126.00 nm and the “Particle-size distribution (PDI)” value is recorded as 0.10. The “Encapsulation efficiency (%)” value in series [2] was 81.76%.
The like results for `CCCCCCCCCC(=O)OCCC(C)(C)CCCCN(CCO)CCCCCCC(=O)OCCC(CCCCCCC)CCCCCCC` [102b] were, in that order, 7.52E+10, 92.12 nm, 0.16 and 93.92%.
Take `CCCCCCCCCC(=O)OCCC(C)(C)CCCCN(CCCO)CCCCCCC(=O)OCCC(CCCCCCC)CCCCCCC` [103b]: the “Total photon count in vivo at 6 hours” value in the series with C57BL/6 mice is recorded as 5.95E+10. Further, in series [1], the “Particle size (nm)” value was found to be 96.82 nm and the “Particle-size distribution (PDI)” value came to 0.11. The “Encapsulation efficiency (%)” value in series [2] stood at 94.07%.
`CCCCCCCCCC(=O)OCCC(C)(C)CCCCN(CCCCO)CCCCCCC(=O)OCCC(CCCCCCC)CCCCCCC` [104b]: the “Total photon count in vivo at 6 hours” value in the series with C57BL/6 mice worked out at 3.20E+10. Further, in series [1], the “Particle size (nm)” value is 135.57 nm and the “Particle-size distribution (PDI)” value was determined as 0.09. Also, the “Encapsulation efficiency (%)” value in series [2] worked out at 91.51%.
On to `CCCCCCCCC(=O)OCCC(C)(C)CCCCCN(CCO)CCCCCCC(=O)OCC(CCCCCCCC)CCCCCCCC` [105b], for which, in the series on C57BL/6 mice, the “Total photon count in vivo at 6 hours” value came to 9.24E+10. Also, in series [1], the “Particle size (nm)” value turned out to be 89.73 nm and the “Particle-size distribution (PDI)” value was 0.16. Further, the “Encapsulation efficiency (%)” value in series [2] is 94.38%.
